Measurements: ChEMBL document CHEMBL1201862, “PubChem BioAssay data set” (2004)
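96-well plates; 48 h exposure; 5 concentrations. Endpoints by linear interpolation between flanking doses. Not reached: highest tested concentration assigned. Abbreviation: GI50, concentration required for 50% inhibition of growth.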 Active and inactive are the calls of the source. Cut-off read from the data, not from the text of the source: active = GI50 up to about 1.1 µM and inactive = higher.

Assays:
Assay in all cases: NCI tumour cell line growth inhibition, 48 h
A498 = test system: A498
IGROV-1 = test system: IGROV-1
MOLT-4 = test system: MOLT-4
Hs-578T = test system: Hs-578T
MDA-N = test system: MDA-N
Malme-3M = test system: Malme-3M
K562 = test system: K562
TK-10 = test system: TK-10
HCT-116 = test system: HCT-116
SK-OV-3 = test system: SK-OV-3
UACC-62 = test system: UACC-62
NCI-H226 = test system: NCI-H226
OVCAR-4 = test system: OVCAR-4
BT-549 = test system: BT-549
MDA-MB-231 = test system: MDA-MB-231
SF-539 = test system: SF-539
OVCAR-8 = test system: OVCAR-8
HL-60 = test system: HL-60
MDA-MB-435 = test system: MDA-MB-435
SW-620 = test system: SW-620
NCI-H522 = test system: NCI-H522
HOP-62 = test system: HOP-62
A549 = test system: A549
HCC 2998 = test system: HCC 2998
CAKI-1 = test system: CAKI-1
OVCAR-3 = test system: OVCAR-3
SK-MEL-5 = test system: SK-MEL-5
PC-3 = test system: PC-3
EKVX = test system: EKVX
M14 = test system: M14
HT-29 = test system: HT-29
OVCAR-5 = test system: OVCAR-5
HCT-15 = test system: HCT-15
NCI-H460 = test system: NCI-H460
SN12C = test system: SN12C
T47D = test system: T47D
LOX IMVI = test system: LOX IMVI
DU-145 = test system: DU-145
ACHN = test system: ACHN
NCI/ADR-RES = test system: NCI/ADR-RES
UACC-257 = test system: UACC-257
UO-31 = test system: UO-31
SF-268 = test system: SF-268
CCRF-CEM = test system: CCRF-CEM
KM12 = test system: KM12
SK-MEL-2 = test system: SK-MEL-2
786-0 = test system: 786-0
SK-MEL-28 = test system: SK-MEL-28
NCI-H23 = test system: NCI-H23
U-251 = test system: U-251
HOP-92 = test system: HOP-92
RPMI-8226 = test system: RPMI-8226
RXF 393 = test system: RXF 393
SNB-19 = test system: SNB-19
SR = test system: SR
COLO 205 = test system: COLO 205
SNB-75 = test system: SNB-75
SF-295 = test system: SF-295
MCF7 = test system: MCF7

With Cc1sc(C)c2c1C(=O)CC2N (centres undefined) the GI50 (A498) was > 100 µM (inactive), the GI50 (IGROV-1) was 34.7 µM (inactive) and the GI50 (MOLT-4) was 1.58 µM (inactive). The GI50 (Hs-578T) was 44.8 µM (inactive), the GI50 (MDA-N) was 21.1 µM (inactive) and the GI50 (Malme-3M) was 13.7 µM (inactive). For the same molecule, the GI50 (K562) was 4.85 µM (inactive), the GI50 (TK-10) was 19.1 µM (inactive) and the GI50 (HCT-116) was 14.5 µM (inactive). The GI50 (SK-OV-3) was > 76.6 µM (inactive), the GI50 (UACC-62) was 75.3 µM (inactive) and the GI50 (NCI-H226) was > 37.8 µM (inactive). The GI50 (OVCAR-4) was 28 µM (inactive), the GI50 (BT-549) was 20 µM (inactive) and the GI50 (MDA-MB-231) was 22.7 µM (inactive). For the same molecule, the GI50 (SF-539) was 3.26 µM (inactive), the GI50 (OVCAR-8) was 21.5 µM (inactive) and the GI50 (HL-60) was 6.64 µM (inactive). For the same molecule, the GI50 (MDA-MB-435) was 20.8 µM (inactive), the GI50 (SW-620) was 6 µM (inactive) and the GI50 (NCI-H522) was 3.3 µM (inactive). The GI50 (HOP-62) was > 85.5 µM (inactive), the GI50 (A549) was 29.3 µM (inactive) and the GI50 (HCC 2998) was 19.3 µM (inactive). For the same molecule, the GI50 (CAKI-1) was 15.1 µM (inactive), the GI50 (OVCAR-3) was 17.5 µM (inactive) and the GI50 (SK-MEL-5) was 46.3 µM (inactive). The GI50 (PC-3) was 27.4 µM (inactive), the GI50 (EKVX) was 44.9 µM (inactive) and the GI50 (M14) was 14.1 µM (inactive). The GI50 (HT-29) was 24.9 µM (inactive), the GI50 (OVCAR-5) was > 100 µM (inactive) and the GI50 (HCT-15) was 31.3 µM. For the same molecule, the GI50 (NCI-H460) was 29.1 µM (inactive), the GI50 (SN12C) was 24.2 µM (inactive) and the GI50 (T47D) was 17.4 µM (inactive). The GI50 (LOX IMVI) was 13.1 µM (inactive), the GI50 (DU-145) was 15.9 µM (inactive) and the GI50 (ACHN) was 16.8 µM (inactive). The GI50 (NCI/ADR-RES) was 50.4 µM (inactive), the GI50 (UACC-257) was 17.5 µM (inactive) and the GI50 (UO-31) was 15.6 µM (inactive). The GI50 (SF-268) was > 40.9 µM (inactive), the GI50 (CCRF-CEM) was 1.04 µM (active) and the GI50 (KM12) was 16.4 µM (inactive). The GI50 (SK-MEL-2) was > 100 µM (inactive), the GI50 (786-0) was 7.98 µM (inactive) and the GI50 (SK-MEL-28) was > 42.7 µM (inactive). For the same molecule, the GI50 (NCI-H23) was 32.1 µM (inactive), the GI50 (U-251) was 76.4 µM (inactive) and the GI50 (HOP-92) was 18.5 µM (inactive). The GI50 (RPMI-8226) was 2.7 µM (inactive), the GI50 (RXF 393) was 16.3 µM (inactive) and the GI50 (SNB-19) was > 94.4 µM (inactive). For the same molecule, the GI50 (SR) was 4.27 µM (inactive), the GI50 (COLO 205) was 17.1 µM (inactive) and the GI50 (SNB-75) was > 50.1 µM (inactive). The GI50 (SF-295) was > 100 µM (inactive).

For CCCCCCCCCCCCCCCCOCC(Cl)COP(=O)(O)OP(=O)(O)OCC1OC(n2cc(C)c(=O)[nH]c2=O)CC1O (centres undefined), the GI50 (A498) was > 100 µM (inactive), the GI50 (IGROV-1) was 55.2 µM (inactive) and the GI50 (MOLT-4) was > 100 µM (inactive). For the same molecule, the GI50 (Hs-578T) was 31.4 µM (inactive), the GI50 (MDA-N) was 52.8 µM (inactive) and the GI50 (Malme-3M) was > 100 µM (inactive). For the same molecule, the GI50 (MCF7) was > 100 µM (inactive), the GI50 (K562) was > 100 µM (inactive) and the GI50 (TK-10) was > 100 µM (inactive). The GI50 (HCT-116) was > 100 µM (inactive), the GI50 (SK-OV-3) was > 100 µM (inactive) and the GI50 (NCI-H226) was 28.8 µM (inactive). For the same molecule, the GI50 (OVCAR-4) was > 100 µM (inactive), the GI50 (BT-549) was > 100 µM (inactive) and the GI50 (MDA-MB-231) was 49 µM (inactive). The GI50 (SF-539) was 72.9 µM (inactive), the GI50 (OVCAR-8) was 75.9 µM (inactive) and the GI50 (HL-60) was > 100 µM (inactive). The GI50 (MDA-MB-435) was 57.1 µM (inactive), the GI50 (SW-620) was > 100 µM (inactive) and the GI50 (NCI-H522) was > 100 µM (inactive). For the same molecule, the GI50 (HOP-62) was > 100 µM (inactive), the GI50 (A549) was > 100 µM (inactive) and the GI50 (HCC 2998) was > 100 µM (inactive). For the same molecule, the GI50 (CAKI-1) was > 100 µM (inactive), the GI50 (OVCAR-3) was > 100 µM (inactive) and the GI50 (SK-MEL-5) was > 100 µM (inactive). The GI50 (PC-3) was 25.1 µM (inactive), the GI50 (EKVX) was > 100 µM (inactive) and the GI50 (M14) was > 100 µM (inactive). The GI50 (HT-29) was > 100 µM (inactive), the GI50 (OVCAR-5) was 95.1 µM (inactive) and the GI50 (HCT-15) was greater than 100 µM. The GI50 (NCI-H460) was > 100 µM (inactive), the GI50 (SN12C) was 70 µM (inactive) and the GI50 (T47D) was 97.3 µM (inactive). The GI50 (LOX IMVI) was > 100 µM (inactive), the GI50 (ACHN) was > 100 µM (inactive) and the GI50 (NCI/ADR-RES) was 71.3 µM (inactive). For the same molecule, the GI50 (UACC-257) was > 100 µM (inactive), the GI50 (UO-31) was > 100 µM (inactive) and the GI50 (SF-268) was 69.2 µM (inactive). The GI50 (CCRF-CEM) was > 100 µM (inactive), the GI50 (KM12) was 95.7 µM (inactive) and the GI50 (SK-MEL-2) was > 100 µM (inactive). The GI50 (786-0) was > 100 µM (inactive), the GI50 (SK-MEL-28) was 55.2 µM (inactive) and the GI50 (NCI-H23) was > 100 µM (inactive). For the same molecule, the GI50 (U-251) was > 100 µM (inactive), the GI50 (HOP-92) was 29.5 µM (inactive) and the GI50 (RPMI-8226) was > 100 µM (inactive). For the same molecule, the GI50 (RXF 393) was > 100 µM (inactive), the GI50 (SNB-19) was > 100 µM (inactive) and the GI50 (COLO 205) was > 100 µM (inactive). For the same molecule, the GI50 (SNB-75) was 26.7 µM (inactive) and the GI50 (SF-295) was 57 µM (inactive).
